In the supplement of paper PMC4862054:

Legend:
Test in all cases: normalised response (% of control), CellTox Green; higher = less cell death (100 = DMSO, 0 = benzethonium chloride kill control)
Details in all cases: incubation time: 72 h
BT-474 = tested on: BT-474
Method in brief: (§1)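 Every value is a normalised signal taken at one concentration of a dilution series. Compound was placed in 384-well plates at 5 concentrations in 10-fold steps over a compound-specific 10,000-fold range, and 20 µl of breast cancer cell suspension was seeded onto it. After 72 h, CellTox Green fluorescence (485/520 nm) was measured first and CellTiter-Glo luminescence second, following 10 min at room temperature. Each plate was scaled to 0.1 % DMSO (100) and a positive kill control (0).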

BT-549 = tested on: BT-549
Method in brief: as §1

CAL-120 = tested on: CAL-120
Method in brief: as §1

CAL-148 = tested on: CAL-148
Method in brief: as §1

CAL-51 = tested on: CAL-51
Method in brief: as §1

CAL-85-1 = tested on: CAL-85-1
Method in brief: as §1

DU-4475 = tested on: DU-4475
Method in brief: as §1

HCC1143 = tested on: HCC1143
Method in brief: as §1

HCC1599 = tested on: HCC1599
Method in brief: as §1

HCC1937 = tested on: HCC1937
Method in brief: as §1

HDQ-P1 = tested on: HDQ-P1
Method in brief: as §1

Hs578T = tested on: Hs578T
Method in brief: as §1

MCF-10A = tested on: MCF-10A
Method in brief: as §1

MDA-MB-231 = tested on: MDA-MB-231
Method in brief: as §1

MDA-MB-436 = tested on: MDA-MB-436
Method in brief: as §1

MDA-MB-453 = tested on: MDA-MB-453
Method in brief: as §1

MDA-MB-468 = tested on: MDA-MB-468
Method in brief: as §1

MFM-223 = tested on: MFM-223
Method in brief: as §1

Structure (SMILES)	normalised response (BT-474)	normalised response (BT-549)	normalised response (CAL-120)	normalised response (CAL-148)	normalised response (CAL-51)	normalised response (CAL-85-1)	normalised response (DU-4475)	normalised response (HCC1143)	normalised response (HCC1599)	normalised response (HCC1937)	normalised response (HDQ-P1)	normalised response (Hs578T)	normalised response (MCF-10A)	normalised response (MDA-MB-231)	normalised response (MDA-MB-436)	normalised response (MDA-MB-453)	normalised response (MDA-MB-468)	normalised response (MFM-223)
COc1ncc(-c2ccc3nccc(-c4ccnnc4)c3c2)cc1NS(=O)(=O)c1ccc(F)cc1F (100 nM)	69.1%	94.8%	102%	67%	70%	99.1%	99.6%	110%	106%	90.5%	86%	85.2%	97.7%	91.2%	93.5%	95%	89.5%	76.5%
COc1ncc(-c2ccc3nccc(-c4ccnnc4)c3c2)cc1NS(=O)(=O)c1ccc(F)cc1F (1000 nM)	36.8%	70.9%	102%	45%	46.1%	52.1%	83.9%	107%	88.6%	7.68%	78.8%	35.8%	73.1%	64.3%	104%	73.4%	-111%	78.7%
C[C@@]1(C(=O)Nc2ccc(F)nc2)CCCN1c1nc(Nc2cc(C3CC3)n[nH]2)c2cccn2n1 (1000 nM)	97.7%	104%	98.1%	88.8%	49.5%	95%	90.6%	68.5%	97.6%	93.8%	82.1%	110%	80.4%	76.2%	90.8%	104%	52.5%	76.7%
CS(=O)(=O)OCCCCOS(C)(=O)=O [Busulfan] (100000 nM)	100%	110%	101%	81.5%	106%	77.6%	97.4%	94.9%	108%	105%	–	123%	95.5%	99.8%	95.6%	97.6%	–	84.1%
COc1cccc2c1C(=O)c1c(O)c3c(c(O)c1C2=O)C[C@@](O)(C(C)=O)C[C@@H]3O[C@H]1C[C@H](N)[C@H](O)[C@H](C)O1 [Daunorubicin] (100 nM)	99.5%	124%	105%	-17.1%	73.5%	102%	100%	75.9%	102%	–	–	90.7%	106%	104%	98.2%	110%	96.9%	99.6%
CN1CCN(c2ccc3nc(-c4c(N)c5c(F)cccc5[nH]c4=O)[nH]c3c2)CC1 [Dovitinib] (10000 nM)	99.9%	121%	101%	92.4%	118%	86.8%	101%	111%	104%	97.9%	108%	–	99.3%	–	108%	103%	126%	99.1%
O=c1[nH]c(=O)n([C@H]2C[C@H](O)[C@@H](CO)O2)cc1F [Floxuridine] (1000 nM)	102%	111%	98.4%	–	71%	89.6%	106%	122%	104%	126%	98%	98.3%	116%	86%	108%	110%	125%	102%
O=c1[nH]c(=O)n([C@H]2C[C@H](O)[C@@H](CO)O2)cc1F [Floxuridine] (10000 nM)	104%	113%	93.8%	106%	53.1%	26.5%	103%	103%	106%	114%	66.2%	93.2%	113%	108%	99.9%	103%	119%	–
O=c1[nH]cc(F)c(=O)[nH]1 [Fluorouracil] (10000 nM)	105%	95.8%	105%	92.9%	120%	75%	99.2%	103%	95.2%	104%	–	118%	75.7%	105%	75.7%	100%	-57.8%	103%
C[C@@H]1C=C2C(=O)O[C@@H]3CC[C@H](C1)[C@]23O [Galiellalactone] (5000 nM)	100%	117%	58.8%	104%	101%	106%	106%	105%	105%	115%	98.5%	112%	82.2%	107%	96.5%	103%	–	101%
COC1=C2C[C@@H](C)C[C@H](OC)[C@H](O)[C@@H](C)/C=C(\C)[C@H](OC(N)=O)[C@@H](OC)/C=C\C=C(/C)C(=O)NC(=CC1=O)C2=O [Geldanamycin] (1000 nM)	95%	112%	102%	–	109%	91%	99.2%	102%	92.2%	105%	102%	91.1%	96.8%	107%	92.2%	104%	–	90.7%
CS(=O)(=O)CCNCc1ccc(-c2ccc3ncnc(Nc4ccc(OCc5cccc(F)c5)c(Cl)c4)c3c2)o1 [Lapatinib] (1000 nM)	76.4%	93.4%	99.2%	64.5%	106%	59.3%	100%	99%	107%	–	96.8%	–	26.9%	–	98.7%	82.5%	84.8%	104%
Cn1cnc2c(F)c(Nc3ccc(Br)cc3F)c(C(=O)NOCCO)cc21 [MEK-162] (1000 nM)	101%	97.4%	93.1%	–	89.1%	79.3%	68.7%	94.5%	94.4%	54.6%	67.1%	121%	106%	39.1%	79.9%	95.4%	120%	–
COc1ccc(C2=N[C@@H](c3ccc(Cl)cc3)[C@@H](c3ccc(Cl)cc3)N2C(=O)N2CCNC(=O)C2)c(OC(C)C)c1 [Nutlin-3] (1000 nM)	100%	116%	102%	102%	–	108%	100%	94.2%	99.6%	115%	112%	61.6%	84%	104%	92.7%	109%	108%	100%
COc1ccc(C2=N[C@@H](c3ccc(Cl)cc3)[C@@H](c3ccc(Cl)cc3)N2C(=O)N2CCNC(=O)C2)c(OC(C)C)c1 [Nutlin-3] (10000 nM)	97.6%	105%	98.2%	43.8%	41.2%	80.3%	91%	105%	101%	–	103%	115%	101%	108%	95%	92.3%	107%	96.4%
COC1=CC(c2cc3ccccc3[nH]2)=N/C1=C\c1[nH]c(C)cc1C [Obatoclax] (1000 nM)	97.3%	113%	90.5%	105%	100%	101%	98.1%	105%	100%	-5.92%	–	107%	70.1%	64.3%	91.5%	105%	107%	102%
CC(C)(C)c1cc(NC(=O)Nc2ccc(-c3cn4c(n3)sc3cc(OCCN5CCOCC5)ccc34)cc2)no1 [Quizartinib] (100 nM)	100%	132%	99.7%	106%	117%	107%	101%	98.3%	106%	–	103%	113%	84.8%	116%	66.7%	101%	139%	102%
CC(C)(C)c1cc(NC(=O)Nc2ccc(-c3cn4c(n3)sc3cc(OCCN5CCOCC5)ccc34)cc2)no1 [Quizartinib] (1000 nM)	101%	127%	103%	103%	111%	62.5%	102%	132%	105%	96%	90.1%	–	93.3%	124%	71.8%	112%	174%	59.1%
O=C(c1ccc(OCCN2CCCCC2)cc1)c1c(-c2ccc(O)cc2)sc2cc(O)ccc12 [Raloxifene] (1000 nM)	97%	106%	104%	92%	121%	98.6%	104%	119%	102%	119%	105%	105%	104%	103%	107%	103%	120%	–
O=C(c1ccc(OCCN2CCCCC2)cc1)c1c(-c2ccc(O)cc2)sc2cc(O)ccc12 [Raloxifene] (10000 nM)	95.4%	101%	–	103%	108%	63.3%	99.6%	118%	58.4%	82.8%	50.4%	–	82.2%	62.7%	104%	99.2%	82.7%	102%
Cn1c(=O)c(F)c(Nc2ccc(I)cc2F)c2c(=O)n(C[C@@H](O)CO)cnc21 [TAK-733] (100 nM)	103%	89.6%	97%	105%	80.9%	89%	74%	124%	104%	108%	97.3%	–	79.7%	71.3%	104%	112%	127%	74.9%
CCS(=O)(=O)c1cccc(-c2cc(C(=O)NC3CCN(C)CC3)c(C)c3[nH]c4ncc(C)cc4c23)c1 [TAK-901] (100 nM)	101%	116%	102%	42%	53.8%	97.9%	100%	118%	99.7%	91.5%	–	76.4%	107%	92.3%	96.8%	107%	-31.9%	94%
CCCC(CCC)C(=O)O [Valproic acid] (10000 nM)	85%	117%	106%	102%	95.7%	111%	104%	94.8%	93.2%	76%	–	100%	107%	–	117%	107%	86.2%	101%
